# “Also recorded” adds a separate entry of the source.
# Columns and labels:
# MDA-MB-231 cells [1] = test: alamar Blue cell viability assay; format: cell-based; details: MDA-MB-231, imipramine 5-100 μM, 96 hours
# Protocol: (§1) The data shown are mean±SEM. *, P<0.05; **, P<0.01; ***, P<0.001; ****, P<0.0001 versus control group, t-test.
# (§2) Cell viability was assessed using alamar Blue cell viability assay.
# MDA-MB-468 cells = test: alamar Blue cell viability assay; format: cell-based; details: MDA-MB-468, imipramine 5-100 μM, 96 hours
# Protocol: as §1, §2
# MDA-MB-231 cells [2] = test: transwell migration assay; format: cell-based; details: MDA-MB-231, 20 μM for 48 hrs
# MDA-MB-231 cells [3] = test: transwell invasion assay; format: cell-based; details: MDA-MB-231, 20 μM for 48 hrs
# [4] = system: MDA-MB-231 cells implanted into the mammary fat pad; details: 16 escalated to 20 or 32 escalated to 40 mg/kg body weight, ip daily for thirty days
# Protocol: MDA-MB-231 cells were implanted into the mammary fat pad of athymic nude mice. […] After the 30th day, the mice were euthanized, and the tumors were isolated and processed for molecular and immunohistologic studies. Tumor volume was calculated by using the formula 0.5236L1 (L2)^2, where L1 is long axis and L2 is the short axis of the tumor.
# [5] = system: MDA-MB-231-GFP-luc cells implanted into the mammary fat pad; test: orthotopic xenograft study, imipramine and olaparib; format: in vivo, athymic nude mice; details: weeks 4 and 5; imipramine 40 mg/kg or olaparib 50 mg/kg body weight
# Protocol: To evaluate whether imipramine can sensitize the response to olaparib treatment, an orthotopic xenograft study was performed. […] Mice were treated for 4 weeks starting week 1 after tumor implantation. Tumor volumes were measured twice a week.
# MDA-MB-231 cells [6] = test: RNA seq gene expression profiling; format: cell-based; details: 96 hours
# Protocol: RNA samples were further processed for gene expression profiling using Illumina HiSeq 2000 following manufacturer's standard protocol (Illumina, San Diego, CA). Differential expression analysis was performed by using DEseq, and significant genes with at least 1.5-fold change with p<0.05 were chosen for analysis. Using all significant and differentially expressed genes from the RNA-seq data, Ingenuity Pathway Analysis software (IPA) was used to interpret the biological pathways. Total protein extracted from cell lines were subjected to western blot analysis.
# IL-10 = details: Mukherjee et al., 2014; cited from earlier work
# IL-12 = details: Mukherjee et al., 2014; cited from earlier work
SMILES,viability of breast cancer cells compared to vehicle-treated cells (MDA-MB-231 cells [1]),viability of breast cancer cells compared to vehicle-treated cells (MDA-MB-468 cells),migration of breast cancer cells compared with vehicle control (MDA-MB-231 cells [2]),invasion of breast cancer cells compared with vehicle control (MDA-MB-231 cells [3]),tumor growth (mean tumor volume) compared to vehicle control [4],tumor size compared to vehicle control [4],tumor weight compared to vehicle control [4],"difference in tumor growth, control vs single agent [5]","expression of cell cycle and DNA repair genes FOXM1, CyclinD1, PLK1, SKP2, XRCC3 and RAD51 (MDA-MB-231 cells [6])",effect on IL-10 (IL-10),effect on levels of IL-12 (IL-12)
CN(C)CCCN1c2ccccc2CCc2ccccc21 [imipramine],significantly reduced viability,significantly reduced viability,reduction,reduction,significantly reduced,significantly reduced,reduced tumor weight in a dose dependent manner; also recorded: significantly reduced,significant difference,reduced expression,inhibit,elevate
O=C(c1cc(Cc2n[nH]c(=O)c3ccccc23)ccc1F)N1CCN(C(=O)C2CC2)CC1 [olaparib],,,,,,,,significant difference,,,

# Source: patent US20240082255A1 (Board of Regents, The University of Texas System, priority 2017, published 2024)
